The values below come from patent US11332463B2, “Spiropiperidine allosteric modulators of nicotinic acetylcholine receptors” (Merck Sharp & Dohme Corp., priority 2018, dated 2022).

pEC50: −log10 of the molar value. Like-named read-outs stand apart in the source and are kept apart here.

This assay concerns the target T1, human α7 nicotinic acetylcholine receptor (HEK cell line stably expressing human RIC-3 and human α7) (Homo sapiens, UniProt P36544).
T1 construct: host or cells: HEK cell line (PrecisION hnAChR α7/RIC-3)
Description: Automated patch-clamp electrophysiology functional assay (Assay A), IonFlux HT, whole-cell population patch. Format: cell-based. The procedure:
The α7 nAChR positive allosteric modulator (PAM) activity of the present compounds may be tested using assays known in the art. […] The assay was performed using the IonFlux HT in a whole-cell, population patch configuration. See Golden et al. Assay Drug Dev. Technol. […] The compounds were assessed for their ability to modulate the function of the human 7 nAChR stably expressed in a HEK cell line both in the presence, and in the absence of the natural 7 agonist acetylcholine. By performing a series of such measurements at different concentrations, the effective concentration of the 7 nAChR PAMs (EC50) was determined. See Spencer et al. Assay Drug Dev. Technol.
Direct activation of α7 (agonism), and potentiation of acetylcholine-evoked 7 currents was determined as follows:
Automated patch-clamp electrophysiology was performed using the IonFlux HT (Fluxion Biosciences Inc., San Francisco, Calif.) in the whole-cell, population patch configuration. Test compounds were assessed for their ability to modulate the function of the α7 nicotinic acetylcholine receptor both in the presence, and in the absence of the natural α7 agonist acetylcholine. […] Immediately prior to assay, cells were detached by first aspirating growth media, rinsing with Dulbecco's phosphate buffered saline, and then adding 10 mL of Accutase (Innovative Cell Technologies, San Diego, Calif.) to the flask and then incubating at 37° C. for 5 minutes. Detached cells were then recovered by the addition of 40 mL of CHO-serum-free media supplemented with 25 mM HEPES, and rocked gently in a 50 mL conical tube for 20 minutes prior to patch-clamp assay. After recovery, cells were pelleted by centrifugation at 1,000 RPM for 1 minute in a compact bench top centrifuge; recovery media was aspirated and cells were resuspended in external recording solution (150 mM NaCl, 5 mM KCl, 2 mM CaCl2), 1 mM MgCl2, 10 mM HEPES, 12 mM dextrose) to a density of 5.0×10^6 cells/mL. The cell suspension was added to the cell inlet wells on an IonFlux HT population patch plate which had previously been rinsed and primed with deionized H2O. Test compounds were serially diluted in DMSO and then resuspended to the final test concentration in external recording solution, with, or without 40 μM acetylcholine added to the external recording solution; test compounds were then transferred to the IonFlux HT population patch plate. Internal recording solution (110 mM TrisPO4, 28 mM TrisBase, 0.1 mM CaCl2, 2 mM MgCl2, 11 mM EGTA, 4 mM MgATP) was added to the internal recording solution inlet wells on the IonFlux HT patch plate previously loaded with cells and test compounds, and the plate loaded into the IonFlux HT instrument. A protocol was executed on the IonFlux HT to trap the cells, break into the cells, and establish the whole-cell recording configuration; cells were voltage-clamped at a holding potential of −60 mV for the duration of the experiment, all experiments were conducted at room temperature, and the IonFlux HT injection pressure was 8 psi for solution applications. Upon establishing the whole-cell configuration, external recording solution was perfused into the recording chambers for 120 seconds and then 40 μM acetylcholine was applied for 1 second and immediately washed off with external recording solution for 60 seconds. The 40 μM acetylcholine-evoked α7 current served as the current response to which subsequent test compound effects, in the presence, or in the absence of 40 μM acetylcholine would be quantified relative to. Next, test compounds were evaluated at multiple concentrations for their ability to induce, or modulate 7 current responses; three concentrations of test compound were evaluated in ascending dose fashion per recording.
On the technique in general: The patch-clamp technique gives a direct electrical read-out from membranes.

Setting [1] is: HEK cells expressing human α7/RIC-3, test compound with or without 40 μM acetylcholine, holding potential −60 mV, room temperature, read-out: α7 nAChR Potency.
The mark [2] stands for this setting: automated patch-clamp electrophysiology functional assay (Assay A), read-out: α7 nAChR EC50.

T1 sequence (P36544 23-502): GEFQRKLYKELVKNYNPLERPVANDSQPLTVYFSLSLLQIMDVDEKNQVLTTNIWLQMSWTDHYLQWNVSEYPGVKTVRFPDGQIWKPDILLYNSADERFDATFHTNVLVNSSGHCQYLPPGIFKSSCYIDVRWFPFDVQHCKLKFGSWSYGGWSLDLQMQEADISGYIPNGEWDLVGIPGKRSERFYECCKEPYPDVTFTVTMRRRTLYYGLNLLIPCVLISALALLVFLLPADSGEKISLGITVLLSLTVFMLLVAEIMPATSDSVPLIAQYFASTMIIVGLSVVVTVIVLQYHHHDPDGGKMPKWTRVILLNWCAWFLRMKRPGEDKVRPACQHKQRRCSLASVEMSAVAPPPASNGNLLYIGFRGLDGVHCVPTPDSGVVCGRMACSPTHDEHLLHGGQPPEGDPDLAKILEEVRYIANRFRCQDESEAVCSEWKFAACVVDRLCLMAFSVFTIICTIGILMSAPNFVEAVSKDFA

Consider `Cc1cc(C)c(-c2nc(C3CC34CCN(S(N)(=O)=O)CC4)no2)cc1C` (stereo not drawn) [Example D25], for which the pEC50 reads like this: under setting [1], 6.30 to 7.00; under setting [2], 6.89.
Take `NS(=O)(=O)N1CCC2(CC1)[C@H](c1cc(-c3ccc(F)cc3C(F)(F)F)ns1)C2(F)F` [Example G11]: the pEC50 is, setting by setting: under setting [1], 6.30 to 7.00; under setting [2], 6.92.
The like results for `NS(=O)(=O)N1CCC2(CC1)C[C@H]2c1noc(-c2cncc(OCC(F)(F)F)c2)n1` [Example E60] were, in that order, 5.30 to 6.30 and 5.64.
For the compound `NS(=O)(=O)N1CCC2(CC1)C(c1nc(-c3c(C4CC4)noc3C(F)(F)F)no1)C2(F)F` (stereo not drawn) [Example C15], the pEC50 under setting [1] was greater than 7.00.
As for `COc1ccc(Cl)cc1-c1noc(C2CC23CCN(C(=O)NCc2ccccc2)CC3)n1` (racemic) [Example B13], the pEC50 runs as follows: under setting [1], 4.30 to 5.30; under setting [2], 5.29.
Consider `NS(=O)(=O)N1CCC2(CC1)[C@H](c1noc(-c3c(C(F)(F)F)cnn3C3CC3)n1)C2(F)F` [Example E48], for which the pEC50 under setting [1] was greater than 7.00 and the pEC50 under setting [2] is 7.22.
As to `NS(=O)(=O)N1CCC2(CC1)C[C@H]2c1noc(-c2ccc(Cl)cc2C(F)(F)F)n1` [Example D7], the pEC50 reads like this: under setting [1], 5.30 to 6.30; under setting [2], 6.23.
On to `Cc1cnn(C2CC2)c1-c1noc(C2C(F)(F)C23CCN(S(N)(=O)=O)CC3)n1` (stereo not drawn) [Example C10], for which the pEC50 reads like this: under setting [1], greater than 7.00; under setting [2], 7.09.
On to `Cc1onc(C2CC2)c1-c1nnc([C@@H]2CC23CCN(S(N)(=O)=O)CC3)s1` [Example F12], for which the pEC50 is 5.30 to 6.30 under setting [1] and 6.07 under setting [2].
For `Cc1ccc(C)c(-c2noc([C@@H]3C(F)(F)C34CCN(S(C)(=O)=O)CC4)n2)c1` (stereo in doubt) [Example 32, 2-[3-(2,5-Dimethylphenyl)-1,2,4-oxadiazol-5-yl]-1,1-difluoro-6-(methylsulfonyl)-6-azaspiro[2.5]octane], in that order: 5.30 to 6.30 and 6.04.
`NS(=O)(=O)N1CCC2(CC1)C[C@H]2c1noc(-c2cccnc2C(F)(F)F)n1` [Example E58]: the pEC50 under setting [1] was 5.30 to 6.30 and the pEC50 under setting [2] is 5.47.
The like results for `NS(=O)(=O)N1CCC2(CC1)C(c1nc(-c3ccccc3)no1)C2(F)F` (stereo not drawn) [Example A2] were, in that order, 6.30 to 7.00 and 6.49.
The like results for `NS(=O)(=O)N1CCC2(CC1)[C@H](c1nnc(-c3ccnn3C3CC3)s1)C2(F)F` [Example 17, (2S)-2-[5-(1-Cyclopropyl-1H-pyrazol-5-yl)-1,3,4-thiadiazol-2-yl]-1,1-difluoro-6-azaspiro[2.5]octane-6-sulfonamide] were, in that order, 5.30 to 6.30 and 6.26.
The like results for `NS(=O)(=O)N1CCC2(CC1)C[C@H]2c1noc(C2CCCCC23CC3)n1` (mixture of isomers) [Example E11] were, in that order, 5.30 to 6.30 and 5.37.
As for `NS(=O)(=O)N1CCC2(CC1)C[C@H]2c1noc(-c2ccc(C(F)(F)F)cc2OC(F)F)n1` [Example D9], the pEC50 is, setting by setting: under setting [1], 5.30 to 6.30; under setting [2], 6.09.
For `NS(=O)(=O)N1CCC2(CC1)C[C@H]2c1noc(-c2ccc3c(c2)CCCC3)n1` [Example E72], in that order: 6.30 to 7.00 and 6.96.
Turning to `COc1ccc(Cl)cc1-c1noc(C2CC23CCN(S(=O)(=O)CC2CCCCO2)CC3)n1` (mixture of isomers) [Example B3], the pEC50 is, setting by setting: under setting [1], 5.30 to 6.30; under setting [2], 5.89.
The like results for `NS(=O)(=O)N1CCC2(C(F)C1)C(c1nc(-c3ccc(F)cc3C(F)(F)F)no1)C2(F)F` (stereo not drawn) [Example I18] were, in that order, 6.30 to 7.00 and 6.49.
For the compound `NS(=O)(=O)N1CCC2(CC1)[C@H](c1nc(-c3conc3C3CC3)no1)C2(F)F` [Example 11, (2R)-2-[3-(3-Cyclopropylisoxazol-4-yl)-1,2,4-oxadiazol-5-yl]-1,1-difluoro-6-azaspiro[2.5]octane-6-sulfonamide], the pEC50 reads like this: under setting [1], greater than 7.00; under setting [2], 7.24.
For the compound `CNc1ncccc1-c1noc(C2CC23CCN(S(N)(=O)=O)CC3)n1` (racemic) [Example C1], the pEC50 is, setting by setting: under setting [1], 5.30 to 6.30; under setting [2], 5.44.
As for `NS(=O)(=O)N1CCC2(C(F)C1)C(c1nc(-c3conc3C3CC3)no1)C2(F)F` (single isomer, unassigned) [Example I14], the pEC50 by setting is: under setting [1], 6.30 to 7.00; under setting [2], 6.48.
The like results for `Cc1ncc(C(F)(F)F)cc1-c1nc([C@@H]2CC23CCN(S(N)(=O)=O)CC3)no1` [Example E61] were, in that order, 5.30 to 6.30 and 5.82.
For `CS(=O)(=O)N1CCC2(CC1)C(c1nc(-c3ccc(F)cc3C(F)(F)F)no1)C2(F)F` (stereo not drawn) [Example 21, 1,1-Difluoro-2-{3-[4-fluoro-2-(trifluoromethyl)phenyl]-1,2,4-oxadiazol-5-yl}-6-(methylsulfonyl)-6-azaspiro[2.5]octane], in that order: 5.30 to 6.30 and 6.17.
For the compound `NS(=O)(=O)N1CCC2(CC1)C[C@H]2c1nnc(-c2cc(F)ccc2F)s1` [Example F4], the pEC50 is, setting by setting: under setting [1], 5.30 to 6.30; under setting [2], 5.96.
For `NS(=O)(=O)N1CCC2(CC1)[C@H](c1noc(-c3ccccn3)n1)C2(F)F` [Example E67], in that order: 5.30 to 6.30 and 5.68.
In the case of `NS(=O)(=O)N1CCC2(CC1)C[C@H]2c1noc(-c2ccc(OC(F)F)cc2)n1` [Example D14], the pEC50 under setting [1] was 5.30 to 6.30.
Consider `NS(=O)(=O)N1CCC2(CC1)[C@@H](c1nc(C3CCCCC3)no1)C2(F)F` [Example H3], for which the pEC50 reads like this: under setting [1], 5.30 to 6.30; under setting [2], 5.35.
For `NS(=O)(=O)N1CCC2(CC1)[C@H](c1noc(-c3ccnc(OC(F)F)c3)n1)C2(F)F` [Example 10, (2R)-2-{5-[2-(Difluoromethoxy)pyridin-4-yl]-1,2,4-oxadiazol-3-yl}-1,1-difluoro-6-azaspiro[2.5]octane-6-sulfonamide], in that order: 6.30 to 7.00 and 6.66.
The like results for `NS(=O)(=O)N1CCC2(CC1)C[C@H]2c1csc(-c2conc2C2CC2)n1` [Example G2] were, in that order, 5.30 to 6.30 and 6.04.
For the compound `COc1ccc(Cl)cc1-c1noc(C2CC23CCN(S(=O)(=O)c2ccc4ncsc4c2)CC3)n1` (racemic) [Example B7], the pEC50 reads like this: under setting [1], 5.30 to 6.30; under setting [2], 5.48.
Take `COc1ccc(Cl)cc1-c1noc(C2CC23CCN(S(=O)(=O)c2ccsc2)CC3)n1` (racemic) [Example B2]: the pEC50 under setting [1] was 5.30 to 6.30.
Regarding `Cc1cccc(C)c1Cc1nc([C@@H]2CC23CCN(S(N)(=O)=O)CC3)no1` [Example E6], the pEC50 by setting is: under setting [1], 5.30 to 6.30; under setting [2], 6.03.
The like results for `NS(=O)(=O)N1CCC2(CC1)C[C@H]2c1nnc(-c2ccc(F)cc2C(F)(F)F)o1` [Example F1] were, in that order, 5.30 to 6.30 and 5.82.
The like results for `CCn1cc(-c2nc([C@@H]3C(F)(F)C34CCN(S(N)(=O)=O)CC4)no2)c(C2CC2)n1` [Example E37] were, in that order, greater than 7.00 and 7.11.
As to `Cc1noc(C)c1Cc1nc([C@@H]2CC23CCN(S(N)(=O)=O)CC3)no1` [Example E28], the pEC50 under setting [1] was 5.30 to 6.30.
Consider `NS(=O)(=O)N1CCC2(CC1)[C@H](c1noc(-c3ccnc(OC4CC4)c3)n1)C2(F)F` [Example E33], for which the pEC50 is 6.30 to 7.00 under setting [1] and 6.33 under setting [2].
Take `COc1ccc(Cl)cc1-c1nc(C2CC23CCN(S(C)(=O)=O)CC3)no1` (racemic) [Example J1]: the pEC50 was 5.30 to 6.30 under setting [1] and 6.12 under setting [2].
The like results for `NS(=O)(=O)N1CCC2(CC1)C[C@H]2c1nnc(-c2ccc(F)cc2C(F)(F)F)s1` [Example F9] were, in that order, 5.30 to 6.30 and 6.12.
